# Columns and labels:
# SV-MES mesangial cells = test: AAR activation in SV-MES mesangial (fibroblastic) cells; assay type: cell-based; settings: 2 hours
# Protocol: FIG. 11. HF induces a stress response in fibroblasts. SV-MES mesangial cells were stimulated for 2 hours with DMSO, 20 nM MAZ1310, or 20 nM HF. Whole cell lysates were analyzed for expression of phosphorylated or total eIF2α by western blotting.
# Duplicate cell samples are shown. […] Activated GCN2 phosphorylates eif2alpha at Ser 51; therefore, this is an expected downstream outcome of AAR activation.
# TGFβ signaling = test: Lymphocyte responses to TGFβ (Smad phosphorylation and others); assay type: cell-based, mouse; settings: low dose HF; 10 μM SB-431542
# Protocol: FIG. 8. […] FIG. 8A is a set of FACS analyses of CD4^+ CD25^− T cells activated in Th1 or Th2 polarizing conditions, either in the presence or absence of TGFβ. DMSO, 10 nM HF, 10 nM MAZ1310, or 10 μM SB-431542 added as indicated at the time of activation. Intracellular cytokine staining was performed on expanded T cells on day 5.
# FIG. 8B is a set of FACS analyses of CD8^+ T cells activated in the presence or absence of TGFβ and cultured with DMSO, 10 nM HF, 10 nM MAZ1310, or 10 μM SB-431542. Expanded cells were restimulated on day 5 and intracellular staining was performed.
# FIG. 8C is a set of FACS analyses of CFSE-labeled B cells activated by LPS stimulation in the presence or absence of TGFβ plus DMSO, 10 nM HF, 10 nM MAZ1310, or 10 μM SB-431542. Intracellular IL-6 production in B cells restimulated with PMA plus ionomycin, or cell-surface IgA expression was determined 4 days after activation.
# FIG. 8D depicts western blot analyses of purified CD4^+ CD25^− T cells treated with DMSO, 40 nM MAZ1310, titrating concentrations of HF (2.5-40 nM) or 10 μM SB-431542 for 30 minutes in complete medium supplemented with 0.1% fetal calf serum. T cells were then activated in the presence or absence of 3 ng/ml TGFβ. Whole cell extracts were prepared after 1 hour of stimulation and western blot analyses were performed using the indicated antibodies. […]
structure (smiles),measurement,setting,value
"O=C(CC1NCCCC1O)Cn1cnc2cc(Br)c(Cl)cc2c1=O (racemic) [HF, halofuginone]",eIF2α phosphorylation in cultured fibroblasts,SV-MES mesangial cells; 20 nM HF,increased eIF2α phosphorylation
same,GCN2 Thr898 phosphorylation,SV-MES mesangial cells; 20 nM,activation of GCN2 phosphorylation
same,TGFβ-induced Smad phosphorylation and other lymphocyte responses to TGFβ,TGFβ signaling,inhibited neither

# — patent publication US20120058133A1, “INHIBITION OF TRNA SYNTHETASES AND THERAPEUTIC APPLICATIONS THEREOF” (President and Fellows of Harvard College, priority 2009, published 2012)
